Measurements from patent US20250000879A1, “PHARMACEUTICAL COMPOSITION FOR PREVENTING DIABETES AND USE THEREOF” (HANYI BIO-TECHNOLOGY (BEIJING) CO., LTD., priority 2018, published 2025).

Key:
[1] = system: diabetes model mice fed with high-fat feed; assay: Serum lipid and insulin levels in mice induced by STZ and high-fat feed; assay type: in vivo; settings: metformin alone, 100 or 250 mg/kg by gavage once a day; two months of treatment; FIG. 6E
Description: After the mice were fasted for 10-12 hours, they were injected with 50 mg/kg of streptozotocin (STZ) intraperitoneally for 5 consecutive days.

[2] = system: mouse lactic acidosis model; assay: Blood lactic acid concentration in mouse lactic acidosis model induced by metformin; assay type: in vivo, mice; settings: FIG. 5
Description: ICR male mice aged 4-6 weeks were used as experimental animals. The mice were administrated by gavage with metformin (260 mg/kg) for induction for three times, with an interval of 12 hours.
The mice were randomly divided into seven groups with five mice in each group: • Group 1: control group, no treatment; • Group 2: given water by gavage every day; • Group 3: given CBD by gavage once a day, 50 mg/kg; • Group 4: given 260 mg/kg of metformin by gavage in the morning and evening on the first day, and 260 mg/kg of metformin by gavage in the next morning, and sampled at […] in the next day; • Group 5: given 260 mg/kg of metformin by gavage in the morning and evening on the first day, and 260 mg/kg of metformin by gavage in the next morning, given 50 mg/kg of CBD at the same time metformin was given by gavage, and sampled at […] in the next day. • Group 6: injected with 260 mg/kg of metformin by caudal vein every other one hour for four times, and sampled one hour after the fourth injection; and • Group 7: given 50 mg/kg of CBD by gavage half an hour before caudal vein injection, injected with 260 mg/kg of metformin by caudal vein half an hour later, once every other hour, four times in total, and sampled one hour after the fourth injection. […]

mouse diarrhea model = assay: Diarrhea index in mouse diarrhea model induced by Folium Sennae; assay type: in vivo, mice; settings: days 1-7, FIG. 4A to 4G
Description: ICR female mice of 4-6 weeks old were used as experimental animals. The mice ate and drank normally, and were given 8% (w/w) Folium Sennae solution by gavage, 0.2 ml/mouse. Diarrhea index of the mice was counted every other one and a half hours for 6 hours. Folium Sennae was purchased from Tongrentang Pharmacy in Beijing. The 8% (w/w) Folium Sennae solution was prepared by boiling 8 parts by weight of Folium Sennae and 92 parts by weight of water in a conical flask for 10 min.
The mice were randomly divided into 7 groups with 10 mice in each group: • Group 1: the mice were given the same volume of water by gavage every day; • Group 2: the mice were given 150 mg/kg of metformin by gavage every day; • Group 3: the mice were given 50 mg/kg of CBD by gavage every day; • Group 4: the mice were given 8% Folium Sennae solution by gavage every day; • Group 5: the mice were given a mixed solution of 8% Folium Sennae solution and 150 mg/kg of metformin by gavage every day; • Group 6: the mice were given a mixed solution of 8% Folium Sennae solution and 50 mg/kg of CBD by gavage every day; and • Group 7: the mice were given a mixed solution of 8% Folium Sennae solution, 150 mg/kg of metformin and 50 mg/kg of CBD by gavage every day.
Every day after gavage, the diarrhea index of each mouse was counted every other one and a half hours, 4 times in total […].
Diarrhea index=loose stool rate*loose stool grade
• Diarrhea rate: the number of animals with loose stools in this group/the total number of animals in this group*100%; • Loose stool rate: the number of loose stools per animal/the total number of stools; and • Loose stool grade: the hardness of loose stool graded according to the size of stains on filter paper with loose stool, as shown in Table 1 below.

[3] = system: DB/DB mice (spontaneous type 2 diabetic mice); assay: Blood glucose of DB/DB mice after administration treatment; assay type: in vivo; settings: CBD alone 50 mg/kg, intragastric, once a day
Description: In order to study the effect of combined use of CBD and metformin, adult DB/DB mice (spontaneous type 2 diabetic mice, purchased from Model Animal Center of Nanjing University) were randomly divided into 5 groups, with 6 mice in each group: • Group 1: control group, no treatment; • Group 2: CBD alone administration group (50 mg/kg); • Group 3: low-dose metformin group (100 mg/kg, calculated by referring to the lowest dose for human, and the dose for mice=9.1×the dose for human); • Group 4: low-dose metformin (100 mg/kg)+CBD (50 mg/kg) group; and • Group 5: high-dose metformin group (250 mg/kg, calculated by referring to the lowest dose for human, and the dose for mice=9.1×the dose for human).
Group 3 and Group 5 were both positive control groups of the treatment group, Group 3 was low-dose metformin group, and Group 5 was high-dose metformin group.
The administration routes of the above five groups were all intragastric administration, once a day
After 4 weeks of administration, blood glucose of mice in each group was measured.

[4] = system: mouse model of chronic renal failure induced by adriamycin; assay: Urinary total protein in mice with chronic renal failure induced by adriamycin; assay type: in vivo; settings: CBD 50 mg/kg by gavage once a day; urine on the 14th day of nephropathy induction; FIG. 7
Description: A mouse model of chronic renal failure induced by adriamycin was constructed according to a conventional method of inducing kidney injury. After CBD treatment for 14 days, urinary total protein level was measured. The specific method is as follows: Kunming white male mice aged 4-6 weeks were used as experimental animals. After the mice were fasted for 10-12 hours, they were injected with 50 mg/kg of streptozotocin (STZ) intraperitoneally for 5 consecutive days. […] On the 7th day after diabetes induction, the mice in the nephropathy group were injected with adriamycin at 10 mg/kg by caudal vein. The mice were applied to the Group 3 to 6 in the following step 2). The experimental animals were randomly divided into 6 groups with 10 animals in each group: • Group 1: control group, fed with normal saline; • Group 2: diabetes group; • Group 3: diabetes+CBD group; given CBD by gavage, 50 mg/kg, once a day; • Group 4: diabetes+adriamycin group; • Group 5: diabetes+adriamycin+CBD group; given CBD by gavage, 50 mg/kg, once a day; and • Group 6: diabetes+adriamycin+metformin group; given metformin by gavage, 50 mg/kg, once a day. After successfully inducing the mouse diabetes model, the mice were injected with adriamycin through caudal vein to induce nephropathy model. Urine was collected from the mice on the 14th day of the induction of nephropathy model, and urinary total protein was detected.

[5] = system: mouse model of type 1 diabetes; assay: Insulin tolerance test (ITT) in STZ-induced mouse model of type 1 diabetes; assay type: in vivo, mice; settings: FIG. 1C
Description: (§1) C57 male mice aged 4-6 weeks were used as experimental animals. After the mice were fasted for 10-12 hours, they were injected with 50 mg/kg of streptozotocin (STZ) intraperitoneally for 5 consecutive days. Fasting blood glucose levels of mice on the 6th and 10th days were measured to determine whether the induction was successful (the induction was considered successful when fasting blood glucose was greater than 11.1 mmol/L). The mice were applied to Group 2 to 6 in the following step 2). […]
One week after GTT, an insulin tolerance test (ITT) was carried out. […] The blood glucose of the mice before injection (0 min) and at 15 min, 30 min, 60 min and 120 min after injection were measured respectively.

[6] = system: mouse model of type 2 diabetes; assay: Glucose tolerance test (GTT) in STZ and high-fat feed mouse model of type 2 diabetes; assay type: in vivo, mice; settings: CBD 50 mg/kg by gavage once a day; one month after administration; FIG. 2B
Description: C57 male mice aged 4-6 weeks were used as experimental animals. The mice were fed with high-fat feed. After the mice were fasted for 10-12 hours, they were injected with 50 mg/kg of streptozotocin (STZ) intraperitoneally for 5 consecutive days. […] The mice were applied to Group 2 to 8 in the following step 2). High-fat feed was formed by adding 60% fat to normal feed. […] One month after administration (after the type 2 diabetes model was stabilized,), a glucose tolerance test (GTT) was carried out. The mice were fasted for 10 hours, and injected with 20% (w/w) glucose was intraperitoneally according to their body weights (10 μl/g).

[7] = system: mouse model of type 1 diabetes; assay: Glucose tolerance test (GTT) in STZ-induced mouse model of type 1 diabetes; assay type: in vivo, mice; settings: FIG. 1B
Description: as §1
(§2) Fasting blood glucose of mice in each group was detected every other three to four weeks; after one month of administration (the model was stable), a glucose tolerance test (GTT) was carried out. […] The blood glucose of the mice before injection (0 min) and at 15 min, 30 min, 60 min and 120 min after injection were measured respectively.

[8] = system: mouse model of type 1 diabetes; assay: Fasting blood glucose in STZ-induced mouse model of type 1 diabetes; assay type: in vivo, mice; settings: FIG. 1A; for fasting blood glucose: after 10 days
Description: C57 male mice aged 4-6 weeks were used as experimental animals. After the mice were fasted for 10-12 hours, they were injected with 50 mg/kg of streptozotocin (STZ) intraperitoneally for 5 consecutive days. Fasting blood glucose levels of mice on the 6th and 10th days were measured to determine whether the induction was successful (the induction was considered successful when fasting blood glucose was greater than 11.1 mmol/L). The mice were applied to Group 2 to 6 in the following step 2).
The mice were randomly divided into 6 groups with 10 mice in each group: • Group 1: blank control group, fed with normal feed and intraperitoneally injected with a buffer solution at a dose of 100 μl/mouse, once a day for 5 consecutive days; • wherein, the buffer solution was a citric acid buffer solution with a concentration of 0.1 mol/L and pH of 4.2 and was sterilized by suction filtration. • Group 2: diabetes model group, fed with normal feed and intraperitoneally injected with streptozotocin; • Group 3: CBD prevention group, fed with normal feed, intraperitoneally injected with streptozotocin, and given CBD by gavage from the first day of induction, 50 mg/kg, once a day; • Group 4: CBD treatment group, fed with normal feed, intraperitoneally injected with streptozotocin, and given CBD by gavage after successful induction, 50 mg/kg, once a day; • Group 5: positive drug control group, fed with normal feed, intraperitoneally injected with streptozotocin, and injected with insulin after successful induction, 0.2 U/kg, once a day; and • Group 6: metformin group, fed with normal feed, intraperitoneally injected with streptozotocin, and given metformin by gavage after successful induction, 50 mg/kg, once a day.
as §2

[9] = system: mouse model of type 2 diabetes; assay: Insulin tolerance test (ITT) in STZ and high-fat feed mouse model of type 2 diabetes; assay type: in vivo, mice; settings: CBD 50 mg/kg by gavage once a day; one month after administration; FIG. 2C
Description: (§3) C57 male mice aged 4-6 weeks were used as experimental animals. The mice were fed with high-fat feed. After the mice were fasted for 10-12 hours, they were injected with 50 mg/kg of streptozotocin (STZ) intraperitoneally for 5 consecutive days. […] The mice were applied to Group 2 to 8 in the following step 2).
(§4) High-fat feed was formed by adding 60% fat to normal feed.

[10] = system: patients with type 2 diabetes; assay: Fasting blood glucose and glycosylated hemoglobin in diabetic volunteers; assay type: in vivo, human; settings: oral CBD 300 mg/day, after 8 weeks, three patients
Description: Every patient received oral CBD treatment at 300 mg/day for 8 weeks. Fasting blood glucose was measured at the 0th, 4th and 8th weeks. Glycosylated hemoglobin value was measured at the 0th and 8th weeks. The results are shown in FIG. 8A and FIG. 8B, respectively.

[11] = system: mouse model of type 2 diabetes; assay: Fasting blood glucose in STZ and high-fat feed mouse model of type 2 diabetes; assay type: in vivo, mice
Description: as §3, §4

CN(C)C(=N)N=C(N)N [metformin, Metformin, reference compound]
insulin level in serum (insulin secretion) [1]: could not increase insulin secretion | lactic acid concentration in blood ([2]; metformin 260 mg/kg, by gavage three times or by caudal vein four times): induce lactic acidemia | diarrhea index (mouse diarrhea model; metformin 150 mg/kg with 8% Folium Sennae solution by gavage every day): aggravate diarrhea induced by Folium Sennae

C=C(C)[C@@H]1CCC(C)=C[C@H]1c1c(O)cc(CCCCC)cc1O [CBD, Cannabidiol]
blood glucose [3]: reduce blood glucose | urinary total protein level [4]: significantly reduce urinary total protein level | ITT, CBD prevention group compared with CBD treatment group ([5]; 50 mg/kg by gavage once a day): the CBD prevention group had a better effect than the CBD treatment group | insulin tolerance test (ITT), sensitivity to insulin ([5]; CBD 50 mg/kg by gavage once a day, one week after GTT): significantly enhance sensitivity of the mice to insulin | lactic acid concentration in blood ([2]; CBD 50 mg/kg by gavage with metformin 260 mg/kg (gavage or caudal vein)): significantly inhibit the increase of lactic acid in blood induced by metformin | glucose tolerance test (GTT), regulation of glucose [6]: improve regulation of glucose in the mice induced by STZ and high-fat feed | diarrhea index, diarrhea induced and aggravated by metformin (mouse diarrhea model; CBD 50 mg/kg with 8% Folium Sennae solution and 150 mg/kg metformin by gavage every day): significantly alleviate | diarrhea index, diarrhea induced by Folium Sennae (mouse diarrhea model; CBD 50 mg/kg with 8% Folium Sennae solution by gavage every day): significantly alleviate | GTT, CBD prevention group compared with CBD treatment group ([7]; 50 mg/kg by gavage once a day): the CBD prevention group had a better effect than the CBD treatment group | glucose tolerance test (GTT), regulation of glucose ([7]; CBD 50 mg/kg by gavage once a day, after one month of administration): significantly enhance regulation of glucose in the mice | fasting blood glucose, CBD prevention group compared with CBD treatment group ([8]; 50 mg/kg by gavage once a day): the CBD prevention group had a better effect than the CBD treatment group | fasting blood glucose ([8]; CBD prevention group: 50 mg/kg by gavage once a day from the first day of STZ induction): significantly reduce the blood glucose increase caused by STZ | fasting blood glucose ([8]; CBD treatment group: 50 mg/kg by gavage once a day after successful induction): significantly reduce the blood glucose increase caused by STZ | insulin tolerance test (ITT), sensitivity to insulin [9]: improve sensitivity of the mice to insulin | fasting blood glucose ([10]; FIG. 8A): decreased significantly | glycosylated hemoglobin ([10]; FIG. 8B): improved significantly | CBD prevention group compared with CBD treatment group (fasting blood glucose, GTT, ITT) ([11]; 50 mg/kg by gavage once a day, FIG. 2A to FIG. 2C): the CBD prevention group had a better effect than the CBD treatment group | fasting blood glucose ([11]; CBD 50 mg/kg by gavage once a day, FIG. 2A): significantly reduce the blood glucose elevation induced by STZ and high-fat feed
